Assay results as given in patent US8722703B2, “Fused amino pyridines for the treatment of brain tumors” (Curis, Inc., priority 2009, dated 2014).

System: MV4-11 AML s.c. tumor
Experiment: Efficacy study in MV4-11 s.c. tumor model
Type: in vivo, sever combined immunodeficient mice
Details: 160 mg/kg orally q2d, three weeks, pretreatment volume 146 mm^3
Description: In an efficacy study using MV4-11 s.c. tumor model (n=8), MV4-11 AML tumor cells (20×10^6) were implanted s.c. into sever combined immunodeficient mice.

With `CN(C)c1cc2c(cc1Sc1nc3c(N)nccc3n1CCNCC(C)(C)C)OCO2` [Compound 15, 2-(6-(dimethylamino)benzo[d][1,3]dioxol-5-ylthio)-1-(2-(neopentylamino)ethyl)-1H-imidazo[4,5-c]pyridin-4-amine] the tumor regression was “complete tumor regression”.
